# Test results: BindingDB's records for doi:10.1016/s0960-894x(03)00105-7 (University of California Irvine, 2003)
# Target: Serine/threonine-protein phosphatase 2A catalytic subunit alpha
# Assay: Inhibition of protein phosphatase 2A (PP2A) was determined by standard phosphorylase a inhibition assay
row,Compound,IC50
1,"CO[C@@H]([C@H](O)CC(=O)[C@@H](C)[C@@H](O)CC[C@@H](C)[C@@H]1O[C@]2(CC[C@@H](C)[C@H](CC[C@H](C)C(C)=O)O2)CC[C@@H]1C)[C@H](OC(=O)C[C@@H](O)/C=C(\C)C(=O)O)C(C)C [(E)-(R)-4-Hydroxy-2-methyl-hex-2-enedioic acid 6-{(1R,2S,3R,6S,7S,10R)-10-[(2S,3S,6R,8S,9R)-3,9-dimethyl-8-((S)-3-methyl-4-oxo-pentyl)-1,7-dioxa-spiro[5.5]undec-2-yl]-3,7-dihydroxy-1-isopropyl-2-methoxy-6-methyl-5-oxo-undecyl} ester]",4 µM
2,"CO[C@@H]([C@H](O)CC(=O)[C@@H](C)[C@@H](O)CC[C@@H](C)[C@@H]1O[C@]2(CC[C@@H](C)[C@H](CC[C@H](C)C(C)=O)O2)CC[C@@H]1C)[C@H](OC(=O)C[C@@](C)(O)C(=O)O)C(C)C [(R)-2-Hydroxy-2-methyl-succinic acid 4-{(1R,2S,3R,6S,7S,10R)-10-[(2S,3S,6R,8S,9R)-3,9-dimethyl-8-((S)-3-methyl-4-oxo-pentyl)-1,7-dioxa-spiro[5.5]undec-2-yl]-3,7-dihydroxy-1-isopropyl-2-methoxy-6-methyl-5-oxo-undecyl} ester]",100 µM
3,"CO[C@@H]([C@H](O)CC(=O)[C@@H](C)[C@@H](O)CC[C@@H](C)[C@@H]1O[C@]2(CC[C@@H](C)[C@H](CC[C@H](C)C(C)=O)O2)CC[C@@H]1C)[C@H](OC(=O)C[C@](C)(O)C(=O)O)C(C)C [(S)-2-Hydroxy-2-methyl-succinic acid 4-{(1R,2S,3R,6S,7S,10R)-10-[(2S,3S,6R,8S,9R)-3,9-dimethyl-8-((S)-3-methyl-4-oxo-pentyl)-1,7-dioxa-spiro[5.5]undec-2-yl]-3,7-dihydroxy-1-isopropyl-2-methoxy-6-methyl-5-oxo-undecyl} ester]",29 µM
4,"CO[C@@H]([C@H](O)CC(=O)[C@@H](C)[C@@H](O)CC[C@@H](C)[C@@H]1O[C@]2(CC[C@@H](C)[C@H](CC[C@H](C)C(C)=O)O2)CC[C@@H]1C)[C@H](OC(=O)CCCP(=O)(O)O)C(C)C [4-Phosphono-butyric acid (1R,2S,3R,6S,7S,10R)-10-[(2S,3S,6R,8S,9R)-3,9-dimethyl-8-((S)-3-methyl-4-oxo-pentyl)-1,7-dioxa-spiro[5.5]undec-2-yl]-3,7-dihydroxy-1-isopropyl-2-methoxy-6-methyl-5-oxo-undecyl ester]",300 µM
